pIC50: −log10 of the molar value. The source made the active and inactive calls. The rule behind the calls is not given here.
How the values were obtained:
[1] = target: T1, Tyrosinase (Agaricus bisporus) (UniProt O42713); assay: Non-competitive inhibition of mushroom tyrosinase using L-DOPA as substrate by Lineweaver-Burk double reciprocal plot method
T1 sequence (whole entry): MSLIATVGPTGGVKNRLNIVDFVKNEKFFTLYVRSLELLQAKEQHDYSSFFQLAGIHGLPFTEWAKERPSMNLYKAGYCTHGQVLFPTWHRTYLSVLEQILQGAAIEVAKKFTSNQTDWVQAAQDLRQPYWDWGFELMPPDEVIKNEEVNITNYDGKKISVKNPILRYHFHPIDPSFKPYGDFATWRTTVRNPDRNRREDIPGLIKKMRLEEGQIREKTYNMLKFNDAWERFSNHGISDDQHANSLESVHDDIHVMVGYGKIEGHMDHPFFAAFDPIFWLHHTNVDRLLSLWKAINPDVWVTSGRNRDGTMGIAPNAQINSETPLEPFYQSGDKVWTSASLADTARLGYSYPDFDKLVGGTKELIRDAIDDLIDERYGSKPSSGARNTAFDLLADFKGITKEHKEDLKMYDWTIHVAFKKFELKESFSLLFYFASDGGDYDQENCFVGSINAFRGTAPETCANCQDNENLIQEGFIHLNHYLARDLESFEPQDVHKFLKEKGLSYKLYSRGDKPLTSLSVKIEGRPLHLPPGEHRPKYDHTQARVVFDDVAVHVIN

[2] = target: T1, Tyrosinase (Agaricus bisporus); assay: Inhibition of mushroom tyrosinase using L-tyrosine as substrate at 200 uM by spectrophotometry relative to control
[3] = target: T1, Tyrosinase (Agaricus bisporus); assay: Inhibition of mushroom tyrosinase using L-tyrosine as substrate at 100 uM by spectrophotometry relative to control
[4] = target: T1, Tyrosinase (Agaricus bisporus); assay: (§1) Inhibition of mushroom tyrosinase using L-tyrosine as substrate by spectrophotometry
[5] = target: T2, Tyrosinase (Agaricus bisporus, UniProt O42713); assay: as §1
T2 sequence (O42713 whole entry): T1 sequence (whole entry)

[6] = target: T1, Tyrosinase (Agaricus bisporus); assay: Inhibition of mushroom tyrosinase using L-DOPA as substrate at 200 uM by spectrophotometry relative to control
[7] = target: T1, Tyrosinase (Agaricus bisporus); assay: Inhibition of mushroom tyrosinase using L-DOPA as substrate at 100 uM by spectrophotometry relative to control
[8] = target: T1, Tyrosinase (Agaricus bisporus); assay: (§2) Inhibition of mushroom tyrosinase using L-DOPA as substrate by spectrophotometry relative to control
[9] = target: T2, Tyrosinase; assay: as §2
[10] = target: T1, Tyrosinase (Agaricus bisporus); assay: Non-competitive inhibition of mushroom tyrosinase using L-tyrosine as substrate by Lineweaver-Burk double reciprocal plot method

| SMILES | inhibition [1] | inhibition [2] [%] | inhibition [3] [%] | inhibition [4] | pIC50 [5] | inhibition [6] [%] | inhibition [7] [%] | inhibition [8] | pIC50 [9] | inhibition [10] |
| --- | --- | --- | --- | --- | --- | --- | --- | --- | --- | --- |
| CCCCCCCCCCCCNc1ccc(O)cc1 | Active | 27 | 23 | Dose-dependent effect | < 3.70 | 45 | 25 | Dose-dependent effect | < 3.70 | Active |
| CCCCCCCCCCNc1ccc(O)cc1 | Active | – | – | Dose-dependent effect | 5.24 | – | – | Dose-dependent effect | 4.52 | Active |
